Laboratory results reported in patent US20220283500A1, “CHEMICALLY AMPLIFIED POSITIVE-TYPE PHOTOSENSITIVE RESIN COMPOSITION, PHOTOSENSITIVE DRY FILM, PRODUCTION METHOD FOR PHOTOSENSITIVE DRY FILM, PRODUCTION METHOD FOR PATTERNED RESIST FILM, COMPOUND, PHOTO-ACID GENERATOR, AND PRODUCTION METHOD FOR N-ORGANOSULFONYLOXY COMPOUND” (TOKYO OHKA KOGYO CO., LTD., priority 2019, published 2022).

Assay: Evaluation of solubility of acid generator in PGMEA
Conditions: maximal concentration dissolved in propylene glycol monomethyl ether acetate (PGMEA)

Structure (SMILES) | Solvent solubility of acid generator
CCCCc1ccc2c3c(cccc13)C(=O)N(OS(=O)(=O)C(F)(F)C(=O)OC)C2=O [PAG-1] | > 20% by mass
CCCCc1ccc2c3c(cccc13)C(=O)N(OS(=O)(=O)C(F)(F)C(=O)OCCC1CCCCC1)C2=O [PAG-2] | > 20% by mass
O=C1c2cccc3cccc(c23)C(=O)N1OS(=O)(=O)C(F)(F)F [PAG-5, reference compound] | < 1% by mass
CCCCc1ccc2c3c(cccc13)C(=O)N(OS(=O)(=O)C(F)(F)F)C2=O [PAG-6, reference compound] | > 20% by mass
COC(=O)C(F)(F)S(=O)(=O)ON1C(=O)c2cccc3cccc(c23)C1=O [PAG-7] | 5% by mass
O=C1c2cccc3cccc(c23)C(=O)N1OS(=O)(=O)C(F)(F)C(=O)OC1C2CC3OS(=O)(=O)C1C3C2 (stereo not drawn) [PAG-8] | < 1% by mass
CCCCC(CC)COC(=O)CSc1ccc2c3c(cccc13)C(=O)N(OS(=O)(=O)C(F)(F)C(=O)OC)C2=O (stereo not drawn) [PAG-9] | > 20% by mass
CCCCC(CC)COC(=O)CSc1ccc2c3c(cccc13)C(=O)N(OS(=O)(=O)C(F)(F)C(=O)OCCC1CCCCC1)C2=O (stereo not drawn) [PAG-10] | > 20% by mass
CCCCC(CC)COC(=O)CSc1ccc2c3c(cccc13)C(=O)N(OS(=O)(=O)C(F)(F)C(=O)OCCC13CC4CC(CC(C4)C1)C3)C2=O (stereo not drawn) [PAG-11] | > 20% by mass
CCCCC(CC)COC(=O)CSc1ccc2c3c(cccc13)C(=O)N(OS(=O)(=O)C(F)(F)C(=O)OC1C3CC4OS(=O)(=O)C1C4C3)C2=O (stereo not drawn) [PAG-12] | > 20% by mass
CCCCC(Oc1cc2c3c(cccc3c1)C(=O)N(OS(=O)(=O)C(F)(F)C(=O)OCCC13CC4CC(CC(C4)C1)C3)C2=O)C(=O)O (stereo not drawn) [PAG-15] | 10% by mass
CCCCC(Oc1cc2c3c(cccc3c1)C(=O)N(OS(=O)(=O)C(F)(F)C(=O)OC1C3CC4OS(=O)(=O)C1C4C3)C2=O)C(=O)O (stereo not drawn) [PAG-16] | 10% by mass
CCCCC(Oc1cc2c3c(cccc3c1)C(=O)N(OS(=O)(=O)C(F)(F)C(=O)OCCC13CC4CC(CC(C4)C1)C3)C2=O)C(=O)OC(C)(C)C (stereo not drawn) [PAG-19] | 15% by mass

Second part, the compound after the results:

Solvent solubility of acid generator | Structure (SMILES)
10% by mass | CCCCC(Oc1cc2c3c(cccc3c1)C(=O)N(OS(=O)(=O)C(F)(F)C(=O)OC)C2=O)C(=O)O (stereo not drawn) [PAG-13]
10% by mass | CCCCC(Oc1cc2c3c(cccc3c1)C(=O)N(OS(=O)(=O)C(F)(F)C(=O)OCCC1CCCCC1)C2=O)C(=O)O (stereo not drawn) [PAG-14]
15% by mass | CCCCC(Oc1cc2c3c(cccc3c1)C(=O)N(OS(=O)(=O)C(F)(F)C(=O)OC)C2=O)C(=O)OC(C)(C)C (stereo not drawn) [PAG-17]
15% by mass | CCCCC(Oc1cc2c3c(cccc3c1)C(=O)N(OS(=O)(=O)C(F)(F)C(=O)OCCC1CCCCC1)C2=O)C(=O)OC(C)(C)C (stereo not drawn) [PAG-18]
10% by mass | COC(=O)C(F)(F)S(=O)(=O)ON1C(=O)c2cc(C(C)C)cc3ccc(C(C)C)c(c23)C1=O [PAG-29]
> 20% by mass | CC(C)c1cc2c3c(c(C(C)C)ccc3c1)C(=O)N(OS(=O)(=O)C(F)(F)C(=O)OCCC1CCCCC1)C2=O [PAG-30]
> 20% by mass | CC(C)c1cc2c3c(c(C(C)C)ccc3c1)C(=O)N(OS(=O)(=O)C(F)(F)C(=O)OCCC13CC4CC(CC(C4)C1)C3)C2=O [PAG-31]
10% by mass | CC(C)c1cc2c3c(c(C(C)C)ccc3c1)C(=O)N(OS(=O)(=O)C(F)(F)C(=O)OC1C3CC4OS(=O)(=O)C1C4C3)C2=O (stereo not drawn) [PAG-32]
